The nature of data set [1]: Thermogravimetric analysis (thermal stability). To be noted: TGA, 15 °C/min under nitrogen. Format: physicochemical. As for the experimental part:
Thermogravimetric analysis (TGA) allowed obtaining of thermal stability results for the presented compounds (K1–K3). For all derivatives, the temperature of 5% (T5) and 10% (T10) mass loss as well as the temperature of complete decomposition (Tmax) were determined. Referring to the T5 for K1–K3, we can see that it is in the range of 222 °C to 244 °C. Such high values indicate the high durability of these compounds. Moreover, the functional group in the substituent has a negligible effect on thermal stability. The best thermal properties are those of K3 compound, containing the 4-nitrophenyl group. In the case of replacing this group with benzonitrile (K2), we observe a slight decrease in T5 (by 13 °C), T10 (by 19 °C), and only one stage of Tmax degradation. On the other hand, compound K1 has the lowest T5 (222 °C). It is most likely due to the aliphatic nature of the substituent. Comparing the discussed derivatives (K1–K3) to their analogs described in the literature, we can see a significant similarity in thermal properties, despite different functional groups in the substituents.
Thermogravimetric analysis was performed on Perkin Elmer Thermogravimetric Analyzer Pyris 1 TGA at a heating rate of 15 °C/min under nitrogen. The electronic spectra were measured on a ThermoScientific Evolution 220 UV/Vis spectrometer. Photoluminescence emission spectra were acquired using Hitachi Fluorescence Spectrophotometer F-7100 [19].

A further data set deals with mushroom tyrosinase (Agaricus bisporus, UniProt C7FF04). As to the kind of experiment: Kinetic analysis of the inhibition of tyrosinase (Lineweaver–Burk plots). Format: biochemical. To be noted: inhibitor 0.05 and 0.1 mM, L-DOPA 0.1–0.25 mM. Here is the method: Based on the Lineweaver–Burk double reciprocal plots, the inhibition mode for the three investigated compounds was established as mixed-type inhibition, i.e., the type of enzyme inhibition in which the inhibitor may bind to the enzyme regardless of whether or not the enzyme has already bound the substrate. […].
Chain of mushroom tyrosinase (C7FF04 1-392): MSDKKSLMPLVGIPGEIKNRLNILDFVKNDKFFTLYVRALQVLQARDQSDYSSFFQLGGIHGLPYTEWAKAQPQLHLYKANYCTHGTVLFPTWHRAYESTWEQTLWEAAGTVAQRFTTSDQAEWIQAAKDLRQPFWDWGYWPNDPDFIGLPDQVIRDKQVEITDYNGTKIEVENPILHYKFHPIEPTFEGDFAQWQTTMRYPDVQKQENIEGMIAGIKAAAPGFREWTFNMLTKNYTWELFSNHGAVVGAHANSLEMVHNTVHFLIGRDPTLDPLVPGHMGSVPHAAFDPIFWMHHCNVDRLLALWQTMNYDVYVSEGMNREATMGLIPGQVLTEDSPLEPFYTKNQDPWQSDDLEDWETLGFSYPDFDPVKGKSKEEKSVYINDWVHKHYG
A series of experiments were performed to determine the inhibition kinetics of tested carbazoles by following the already reported method. The inhibitor concentrations for tested carbazoles were 0.05 and 0.1 mM. Substrate L-DOPA concentration was between 0.1 and 0.25 mM in all kinetic studies. Maximal initial velocity was determined from the initial linear portion of absorbance up to ten minutes after addition of enzyme. The inhibition type of the enzyme, Michaelis constant (Km) and maximal velicity (Vmax), were determined by Lineweaver–Burk plots of inverse of velocities (1/V) versus inverse of substrate concentration 1/[L-DOPA] mM^−1.

Data set [2] is described as follows: Dissolution in solvents for absorption/emission studies. Format: physicochemical. To be noted: non-polar toluene. Here is the method:
Absorption and emission studies were carried out for investigated compounds K1–K3 using solvents of different polarities. The presented molecules differ in the substituent in thiazole ring. To check the influence of the substituent in the discussed molecules, the tests were carried out on solutions with a concentration of 2.5 × 10^−5 mol/L. In the first step, absorption maxima (λabs) were determined. The measured data are shown in Table 3, Figure 3, Figures S1 and S2.
Each of the derivatives has at least two bands registered in the absorption spectra. The main bands between 320 and 370 nm can be attributed to the π→π* transition. The next one is the band […] 300 nm. In the case of the presented molecules, the solvatochromic effect associated with the polarity of the solvent is not observed in the absorption spectra. The same behavior is shown by the analogs described in the literature. In the next step, the emission maxima were determined. For the K3 molecule, spectra were recorded only in chloroform, ethanol, and DMSO. […] For the rest, λem was successfully determined in several solvents. By analyzing the fluorescence spectra, the influence of the polarity of the solvent on the obtained results can be observed. […] Moreover, the Stokes shift increases from non-polar to polar solvents (K3 30 nm, K1 69 nm, K2 70 nm). […]

One may read the Vmax as the rate approached at saturating substrate.

As to `C(=N\Nc1nc(C23CC4CC(CC(C4)C2)C3)cs1)/c1ccc(-n2c3ccccc3c3ccccc32)cc1` [K1, (E)-2-(2-(4-(9H-carbazol-9-yl)benzylidene)hydrazinyl)-4-(1-adamantyl)thiazole], in data set [1], the “T5 (temperature at 5% weight loss)” value amounted to 222 °C and the “T10 (temperature at 10% weight loss)” value stood at 279 °C. Also, at mushroom tyrosinase, the “Inhibitory Mechanism” value is “Mixed” and the maximal velocity (Vmax) stood at 0.2608 mM/min.
With `N#Cc1ccc(-c2csc(N/N=C/c3ccc(-n4c5ccccc5c5ccccc54)cc3)n2)cc1` [K2, (E)-4-(2-(2-(4-(9H-carbazol-9-yl)benzylidene)hydrazinyl)thiazol-4-yl)benzonitrile], in data set [1], the “T5 (temperature at 5% weight loss)” value was found to be 231 °C and the “T10 (temperature at 10% weight loss)” value worked out at 252 °C. Moreover, at mushroom tyrosinase, the “Inhibitory Mechanism” value was “Mixed” and the Vmax amounted to 0.4078 mM/min.
As to `O=[N+]([O-])c1ccc(-c2csc(N/N=C/c3ccc(-n4c5ccccc5c5ccccc54)cc3)n2)cc1` [K3, (E)-2-(2-(4-(9H-carbazol-9-yl)benzylidene)hydrazinyl)-4-(4-nitrophenyl)thiazole], in data set [1], the “T5 (temperature at 5% weight loss)” value was found to be 244 °C and the “T10 (temperature at 10% weight loss)” value turned out to be 271 °C. On mushroom tyrosinase, the “Inhibitory Mechanism” value is on record as “Mixed” and the Vmax stood at 0.4718 mM/min. In data set [2], the solubility in toluene entry was “did not dissolve”.

The values are drawn from paper PMC12386811, “Novel Carbazole–Thiazole Conjugates: Synthesis and Biophysical Characterization” (International Journal of Molecular Sciences, 2025).
